Assay results taken from US20260092061A1, “COMPOUNDS FOR TARGETED PROTEIN DEGRADATION” (Amphista Therapeutics Limited, priority 2022, published 2026).
Like-named read-outs stand apart in the source and are kept apart here.

Experiments:
BRD9 [1] = target: T1, BRD9 (Homo sapiens, UniProt Q9H8M2); test: Degradation of BRD9 (IF), immunofluorescence in MV4-11 cells, 24 hours (Assay Protocol 2); assay type: cell-based; design: A suspension of MV4-11 cells (ATCC CRL-9591) was prepared; host or cells: MV4-11
T1 sequence (Q9H8M2 1-597): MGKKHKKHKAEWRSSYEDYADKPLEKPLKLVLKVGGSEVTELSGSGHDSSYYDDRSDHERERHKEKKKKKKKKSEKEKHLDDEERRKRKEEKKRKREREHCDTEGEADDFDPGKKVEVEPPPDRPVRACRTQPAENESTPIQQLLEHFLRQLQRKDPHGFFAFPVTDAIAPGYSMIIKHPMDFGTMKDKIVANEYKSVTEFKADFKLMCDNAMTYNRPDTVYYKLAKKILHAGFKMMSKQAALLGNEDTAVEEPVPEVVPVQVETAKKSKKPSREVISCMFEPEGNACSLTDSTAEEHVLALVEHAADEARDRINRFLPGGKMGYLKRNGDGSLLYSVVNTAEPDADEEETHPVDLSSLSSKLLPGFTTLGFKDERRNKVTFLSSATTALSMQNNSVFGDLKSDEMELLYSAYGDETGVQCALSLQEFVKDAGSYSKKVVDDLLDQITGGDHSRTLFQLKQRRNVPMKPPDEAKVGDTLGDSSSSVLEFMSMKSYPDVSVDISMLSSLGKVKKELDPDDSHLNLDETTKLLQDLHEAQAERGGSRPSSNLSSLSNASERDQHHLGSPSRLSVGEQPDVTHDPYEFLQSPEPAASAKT
Summary of the method: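 % BRD9 remaining, scaled between DMSO (high) and 100 nM CFT-8634 (low) control wells, derives from mean Alexa 647 contrast in central nuclei by high-content imaging. MV4-11 cells had 24 h compound exposure at 37° C. before PFA fixation, Triton permeabilisation and anti-BRD9 E4Q3F immunostaining.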

BRD9 [2] = target: T1, BRD9; test: BRD9 degradation, HiBiT-BRD9 KI HEK293 (LgBiT) cells, NanoGlo Lytic Endpoint assay (Assay Protocol 1); assay type: cell-based; conditions: for Dmax / Dmax at 1 µM: HEK293
Summary of the method: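 HiBiT-tagged BRD9 knock-in HEK293 (LgBiT) cells exposed to compounds for 6 h at 37 °C, 5% CO2. Residual BRD9 measured by HiBiT lytic luminescence. % BRD9 remaining normalised to DMSO-treated cells (high) and no-cell wells (low).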

[3] = MV4-11, Table 4, BRD9 degradation, determined according to Assay Protocol 2, read-out: Dmax^2
[4] = MV4-11, Table 5, cells marked *: measured in accordance with Assay Protocol 2, read-out: BRD9 Dmax (%)
[5] = Table 5, cells marked *: measured in accordance with Assay Protocol 2, read-out: BRD9 DC50
[6] = Table 4, BRD9 degradation, determined according to Assay Protocol 1, read-out: Dmax^1
[7] = Table 4, BRD9 degradation, determined according to Assay Protocol 1, read-out: DC50^1
[8] = Table 4, BRD9 degradation, determined according to Assay Protocol 2, read-out: DC50^2
[9] = Table 5, assay protocol 1, read-out: BRD9 Dmax (%)
[10] = Table 5, assay protocol 1, read-out: BRD9 DC50
[11] = MV4-11, 24 h, Table 2, BRD9 degradation (IF), Assay Protocol 2, MV4-11 cells, read-out: Assay 2 DCmax
[12] = Table 2, BRD9 degradation (IF), Assay Protocol 2, MV4-11 cells, read-out: Assay 2 DC50
[13] = Table 2, BRD9 degradation, Assay Protocol 1, 1 μM compound at 6 h of treatment, read-out: Assay 1 Dmax
[14] = Table 3, assay 1, 1 μM compound at 5 h of treatment, read-out: BRD9 Dmax (%)
[15] = Table 2, BRD9 degradation, Assay Protocol 1, 6 h of treatment, read-out: Assay 1 DC50

COc1cc(-c2cn(C)c(=O)c(C)c2C)cc(OC)c1CN(C)C(=O)/C(C#N)=C/C(C)(C)C [BRD9ac, (E/Z)-2-cyano-N-(2,6-dimethoxy-4-(1,4,5-trimethyl-6-oxo-1,6-dihydropyridin-3-yl)benzyl)-N,4,4-trimethylpent-2-enamide] was tested, and the Dmax (BRD9 [1]; [3]) was 50 to 70%, the Dmax (BRD9 [1]; [4]) was 40 to 70% and the DC50 (BRD9 [1]; [5]) was 25 to 1000 nM. It also gave a Dmax (BRD9 [2]; [6]) of 30 to 50% and a DC50 (BRD9 [2]; [7]) of 25 to 200 nM.

In the case of COc1cc(-c2cn(C)c(=O)c(C)c2C)cc(OC)c1CN1CCCN(C(=O)/C(C#N)=C/C(C)(C)C)CC1 [BRD9c, (E/Z)-2-(4-(2,6-dimethoxy-4-(1,4,5-trimethyl-6-oxo-1,6-dihydropyridin-3-yl)benzyl)-1,4-diazepane-1-carbonyl)-4,4-dimethylpent-2-enenitrile], the Dmax (BRD9 [1]; [3]) is reported as over 70%, the Dmax (BRD9 [1]; [4]) is reported as over 75% and the DC50 (BRD9 [1]; [8]) is reported as under 25 nM. For the same molecule, the DC50 (BRD9 [1]; [5]) was under 1.25 nM, the Dmax (BRD9 [2]; [6]) was over 70% and the DC50 (BRD9 [2]; [7]) was under 25 nM.

With COc1cc(-c2cn(C)c(=O)c(C)c2C)cc(OC)c1CN1CCN(C(=O)/C(C#N)=C/c2cccc(Br)n2)CC1 [BRD9h, (E/Z)-3-(6-bromopyridin-2-yl)-2-(4-(2,6-dimethoxy-4-(1,4,5-trimethyl-6-oxo-1,6-dihydropyridin-3-yl)benzyl)piperazine-1-carbonyl)acrylonitrile] the Dmax (BRD9 [1]; [3]) was over 70%, the DC50 (BRD9 [1]; [8]) was under 25 nM and the Dmax (BRD9 [2]; [6]) was over 70%. For the same molecule, the Dmax (BRD9 [2]; [9]) was over 75%, the DC50 (BRD9 [2]; [7]) was under 25 nM and the DC50 (BRD9 [2]; [10]) was under 1.25 nM.

In the case of COc1cc(-c2cn(C)c(=O)c3cnccc23)cc(OC)c1CN1CCN(Cc2cccc3c2CCN(C(=O)/C(C#N)=C\c2ncc(C)s2)C3C)CC1 (mixture of isomers) [Compound A10, (E/Z)-2-(5-((4-(2,6-dimethoxy-4-(2-methyl-1-oxo-1,2-dihydro-2,7-naphthyridin-4-yl)benzyl)piperazin-1-yl)methyl)-1-methyl-1,2,3,4-tetrahydroisoquinoline-2-carbonyl)-3-(5-methylthiazol-2-yl)acrylonitrile], the Dmax (BRD9 [1]; [11]) is reported as 40 to 70%, the DC50 (BRD9 [1]; [12]) is reported as under 1.25 nM and the Dmax at 1 µM (BRD9 [2]; [13]) is reported as 40 to 70%. It also gave a Dmax (BRD9 [2]; [14]) of 40 to 70% and a DC50 (BRD9 [2]; [15]) of under 1.25 nM.

COc1cc(-c2cn(C)c(=O)c(C)c2C)cc(OC)c1CN1C2CC1CN(C(=O)/C(C#N)=C/c1cccc(Br)n1)C2 (mixture of isomers) [BRD9o, (E/Z)-3-(6-bromopyridin-2-yl)-2-(6-(2,6-dimethoxy-4-(1,4,5-trimethyl-6-oxo-1,6-dihydropyridin-3-yl)benzyl)-3,6-diazabicyclo[3.1.1]heptane-3-carbonyl)acrylonitrile] showed a DC50 (BRD9 [1]; [8]) of 25 to 200 nM, a Dmax (BRD9 [2]; [6]) of over 70% and a Dmax (BRD9 [2]; [9]) of over 75%. For the same molecule, the DC50 (BRD9 [2]; [10]) was 10 to 25 nM.

For COc1cc(-c2cn(C)c(=O)c3cnccc23)cc(OC)c1CN(C)Cc1cccc2c1CCN(C(=O)/C(C#N)=C/c1cccc(Br)n1)C2C (mixture of isomers) [Compound A50], the Dmax (BRD9 [1]; [11]) was over 75%, the DC50 (BRD9 [1]; [12]) was 1.25 to 10 nM and the Dmax at 1 µM (BRD9 [2]; [13]) was over 75%. It also gave a Dmax at 1 µM (BRD9 [2]; [14]) of over 75% and a DC50 (BRD9 [2]; [15]) of under 1.25 nM.

Work on COc1cc(-c2cn(C)c(=O)c(C)c2C)cc(OC)c1CN1CCN(Cc2cccc3c2CCN(C(=O)/C(C#N)=C/c2cccc(Br)n2)C3C)CC1 (mixture of isomers) [Compound A16, (E/Z)-3-(6-bromopyridin-2-yl)-2-(5-((4-(2,6-dimethoxy-4-(1,4,5-trimethyl-6-oxo-1,6-dihydropyridin-3-yl)benzyl)piperazin-1-yl)methyl)-1-methyl-1,2,3,4-tetrahydroisoquinoline-2-carbonyl) acrylonitrile] yielded a Dmax (BRD9 [1]; [11]) of 40 to 70%, a DC50 (BRD9 [1]; [12]) of under 1.25 nM and a Dmax at 1 µM (BRD9 [2]; [13]) of 70 to 75%. The Dmax at 1 µM (BRD9 [2]; [14]) was 70 to 75% and the DC50 (BRD9 [2]; [15]) was 1.25 to 10 nM.

COc1cc(-c2cn(C)c(=O)c(C)c2C)cc(OC)c1CN1CCCN(Cc2cccc3c2CCN(C(=O)/C(C#N)=C/C(C)(C)C)C3C)CC1 (mixture of isomers) [Compound A72, (E/Z)-2-(5-((4-(2,6-dimethoxy-4-(1,4,5-trimethyl-6-oxo-1,6-dihydropyridin-3-yl)benzyl)-1,4-diazepan-1-yl)methyl)-1-methyl-1,2,3,4-tetrahydroisoquinoline-2-carbonyl)-4,4-dimethylpent-2-enenitrile] showed a Dmax (BRD9 [1]; [11]) of 40 to 70%, a DC50 (BRD9 [1]; [12]) of 10 to 25 nM and a Dmax at 1 µM (BRD9 [2]; [13]) of 70 to 75%. The Dmax at 1 µM (BRD9 [2]; [14]) was 70 to 75% and the DC50 (BRD9 [2]; [15]) was 10 to 25 nM.

COc1cc(-c2cn(C)c(=O)c(C)c2C)cc(OC)c1CN1CCN(C(=O)/C(C#N)=C/C(C)(C)C)C2(CC2)C1 [BRD9e, (E/Z)-2-(7-(2,6-dimethoxy-4-(1,4,5-trimethyl-6-oxo-1,6-dihydropyridin-3-yl)benzyl)-4,7-diazaspiro[2,5]octane-4-carbonyl)-4,4-dimethylpent-2-enenitrile] showed a Dmax (BRD9 [1]; [3]) of 30 to 50%, a Dmax (BRD9 [1]; [4]) of 25 to 40% and a DC50 (BRD9 [1]; [5]) of over 1000 nM. It also gave a DC50 (BRD9 [2]; [7]) of over 200 nM.

In the case of COc1cc(-c2cn(C)c(=O)c(C)c2C)cc(OC)c1CN1CCC(Oc2cccc3c2CCN(C(=O)/C(C#N)=C/c2cccc(Br)n2)C3C)CC1 (mixture of isomers) [Compound A68, (E/Z)-3-(6-bromopyridin-2-yl)-2-(5-((1-(2,6-dimethoxy-4-(1,4,5-trimethyl-6-oxo-1,6-dihydropyridin-3-yl)benzyl)piperidin-4-yl)oxy)-1-methyl-1,2,3,4-tetrahydroisoquinoline-2-carbonyl)acrylonitrile], the Dmax (BRD9 [1]; [11]) is reported as 40 to 70%, the DC50 (BRD9 [1]; [12]) is reported as under 1.25 nM and the Dmax at 1 µM (BRD9 [2]; [13]) is reported as over 75%. For the same molecule, the Dmax at 1 µM (BRD9 [2]; [14]) was over 75% and the DC50 (BRD9 [2]; [15]) was 1.25 to 10 nM.

COc1cc(-c2cn(C)c(=O)c(C)c2C)cc(OC)c1CN1CC2CC1CN2C(=O)/C(C#N)=C/C(C)(C)C (mixture of isomers) [BRD9b] showed a Dmax (BRD9 [1]; [3]) of 50 to 70%, a DC50 (BRD9 [1]; [8]) of under 25 nM and a Dmax (BRD9 [2]; [6]) of over 70%. For the same molecule, the Dmax (BRD9 [2]; [9]) was 70 to 75%, the DC50 (BRD9 [2]; [7]) was under 25 nM and the DC50 (BRD9 [2]; [10]) was 10 to 25 nM.

With COc1cc(-c2cn(C)c(=O)c(C)c2C)cc(OC)c1CN1CC2CC1CN2C(=O)/C(C#N)=C/c1nccs1 (mixture of isomers) [BRD9i, (E/Z)-2-(5-(2,6-dimethoxy-4-(1,4,5-trimethyl-6-oxo-1,6-dihydropyridin-3-yl)benzyl)-2,5-diazabicyclo[2.2.1]heptane-2-carbonyl)-3-(thiazol-2-yl)acrylonitrile] the DC50 (BRD9 [1]; [8]) was under 25 nM, the Dmax (BRD9 [2]; [6]) was 50 to 70% and the Dmax (BRD9 [2]; [9]) was 40 to 70%. For the same molecule, the DC50 (BRD9 [2]; [7]) was 25 to 200 nM and the DC50 (BRD9 [2]; [10]) was 25 to 1000 nM.

In the case of COc1cc(-c2cn(C)c(=O)c(C)c2C)cc(OC)c1CN1CCN(Cc2cccc3c2CCN(C(=O)/C(C#N)=C/c2nccs2)C3C)CC1 (mixture of isomers) [Compound A4, (E/Z)-2-(5-((4-(2,6-dimethoxy-4-(1,4,5-trimethyl-6-oxo-1,6-dihydropyridin-3-yl)benzyl)piperazin-1-yl)methyl)-1-methyl-1,2,3,4-tetrahydroisoquinoline-2-carbonyl)-3-(thiazol-2-yl)acrylonitrile], the Dmax (BRD9 [1]; [11]) is reported as 70 to 75%, the DC50 (BRD9 [1]; [12]) is reported as under 1.25 nM and the Dmax at 1 µM (BRD9 [2]; [13]) is reported as 70 to 75%. It also gave a Dmax at 1 µM (BRD9 [2]; [14]) of 70 to 75% and a DC50 (BRD9 [2]; [15]) of under 1.25 nM.

For COc1cc(-c2cn(C)c(=O)c(C)c2C)cc(OC)c1CN1CC2CC(C1)N2Cc1cccc2c1CCN(C(=O)/C(C#N)=C/C(C)(C)C)C2C (mixture of isomers) [Compound A71, (E/Z)-2-(5-((3-(2,6-dimethoxy-4-(1,4,5-trimethyl-6-oxo-1,6-dihydropyridin-3-yl)benzyl)-3,6-diazabicyclo[3.1.1]heptan-6-yl)methyl)-1-methyl-1,2,3,4-tetrahydroisoquinoline-2-carbonyl)-4,4-dimethylpent-2-enenitrile], the Dmax (BRD9 [1]; [11]) was over 75%, the DC50 (BRD9 [1]; [12]) was under 1.25 nM and the Dmax at 1 µM (BRD9 [2]; [13]) was 70 to 75%. For the same molecule, the Dmax at 1 µM (BRD9 [2]; [14]) was 70 to 75% and the DC50 (BRD9 [2]; [15]) was 1.25 to 10 nM.

For COc1cc(-c2cn(C)c(=O)c(C)c2C)cc(OC)c1CN1CCN(C(=O)/C(C#N)=C/C(C)(C)C)CC1 [BRD9a, (E/Z)-2-(4-(2,6-dimethoxy-4-(1,4,5-trimethyl-6-oxo-1,6-dihydropyridin-3-yl)benzyl)piperazine-1-carbonyl)-4,4-dimethylpent-2-enenitrile], the Dmax (BRD9 [1]; [3]) was 50 to 70%, the Dmax (BRD9 [2]; [6]) was 50 to 70% and the Dmax (BRD9 [2]; [9]) was 40 to 70%. For the same molecule, the DC50 (BRD9 [2]; [7]) was over 200 nM and the DC50 (BRD9 [2]; [10]) was 25 to 1000 nM.
